# Measurements from PubChem BioAssay AID200 (DTP/NCI, 2004).
# “And” between values parts separate entries of the source, which are not always exact repeats. Equal entries are not always repeated. Toxic doses and inconclusive results are not listed.
# Tested on: B6C3F1 mice, B16 melanoma ip, median survival T/C
# Assay: NCI In Vivo Anticancer Drug Screen. Data for tumor model B16 Melanoma (intraperitoneal) in B6C3F1 mice
# Details: endpoint: median survival time, schedule: Q01DX009 (ip), higher = longer survival
# How it was run: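 Transplantable tumor in mice; treated vs vehicle control groups; survival or tumor size measured; value = T/C ratio.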
# [1] = dose: 12.5 mg/kg/injection, vehicle: distilled water + Tween-80
# [2] = dose: 25.0 mg/kg/injection, vehicle: distilled water + Tween-80
# [3] = dose: 50.0 mg/kg/injection, vehicle: distilled water + Tween-80
# [4] = dose: 100.0 mg/kg/injection, vehicle: distilled water + Tween-80
# [5] = dose: 12.5 mg/kg/injection, vehicle: saline
# [6] = dose: 25.0 mg/kg/injection, vehicle: saline
# [7] = dose: 50.0 mg/kg/injection, vehicle: saline
# [8] = dose: 100.0 mg/kg/injection, vehicle: saline
# [9] = dose: 200.0 mg/kg/injection, vehicle: saline
# [10] = dose: 6.25 mg/kg/injection, vehicle: saline with Tween-80
# [11] = dose: 12.5 mg/kg/injection, vehicle: saline with Tween-80
# [12] = dose: 25.0 mg/kg/injection, vehicle: saline with Tween-80
# [13] = dose: 50.0 mg/kg/injection, vehicle: saline with Tween-80
# [14] = dose: 100.0 mg/kg/injection, vehicle: saline with Tween-80
# [15] = dose: 400.0 mg/kg/injection, vehicle: saline with Tween-80
# [16] = dose: 200.0 mg/kg/injection, vehicle: saline with Tween-80
# [17] = dose: 6.25 mg/kg/injection, vehicle: saline
smiles,measurement,setting,value
CCCCCCCC(=O)O[C@H]1[C@H]2[C@@H](CC1(C)C)C(=O)[C@]13O[C@H]1C(=O)[C@]1(CO1)[C@]23C,T/C,"dose: 0.31 mg/kg/injection, vehicle: saline with Tween-80",98 % of control
same,T/C,"dose: 0.62 mg/kg/injection, vehicle: saline with Tween-80",90 % of control
same,T/C,"dose: 1.25 mg/kg/injection, vehicle: saline with Tween-80",86 % of control and 98 % of control
same,T/C,"dose: 2.5 mg/kg/injection, vehicle: saline with Tween-80",88 % of control
CCc1nc(N)nc(N)c1-c1ccc(Cl)c(N=[N+]=[N-])c1,T/C,[1],100 % of control
same,T/C,[2],98 % of control and 102 % of control
same,T/C,[3],108 % of control (2×) and 109 % of control
same,T/C,[4],122 % of control
same,T/C,"dose: 200.0 mg/kg/injection, vehicle: distilled water + Tween-80",157 % of control and 169 % of control
O=C1OC(=O)[C@H]2[C@@H]1[C@H]1C=C[C@@H]2OC1=O,T/C,[5],102 % of control
same,T/C,[6],101 % of control
same,T/C,[7],106 % of control
same,T/C,[8],102 % of control
same,T/C,[9],99 % of control
CC(/C=N/N=C(N)N)=N\N=C(N)N,T/C,[6],110 % of control
same,T/C,[7],111 % of control
same,T/C,[8],95 % of control
O=C(O)CCCc1ccc(N(CCCl)CCCl)cc1,T/C,"dose: 1.56 mg/kg/injection, vehicle: saline with Tween-80",113 % of control and 106 % of control
same,T/C,"dose: 3.13 mg/kg/injection, vehicle: saline with Tween-80",119 % of control and 103 % of control
same,T/C,[10],118 % of control
same,T/C,[11],98 % of control and 106 % of control
CCCCCCCCCCCCSC1=C(Cl)C(=O)C(OC)=C(OC)C1=O,T/C,"dose: 3.12 mg/kg/injection, vehicle: saline with Tween-80",95 % of control and 102 % of control
same,T/C,[10],95 % of control and 103 % of control
same,T/C,[11],89 % of control and 94 % of control
same,T/C,[12],90 % of control and 100 % of control
same,T/C,[13],88 % of control and 101 % of control
same,T/C,[14],89 % of control
CCC(C)C(=O)O[C@H]1C(=O)O[C@@H]2C[C@H]3C(C)=CC(=O)[C@@H](O)[C@]3(C)[C@H]3[C@@H](O)[C@H](O)[C@@]4(C)OC[C@]32[C@@H]14 (some centres undefined),T/C,"dose: 1.0 mg/kg/injection, vehicle: saline + alcohol",160 % of control
C(COCCOCC1CO1)OCCOCC1CO1 (centres undefined),T/C,[5],108 % of control
same,T/C,[6],104 % of control
same,T/C,[7],107 % of control
same,T/C,[9],153 % of control
same,T/C,"dose: 400.0 mg/kg/injection, vehicle: saline",178 % of control
O=c1[nH]c(=O)n(C2CC(O)C(CO)O2)cc1I (centres undefined),T/C,[15],111 % of control
CCCCCCNc1nc(NCCCCCC)c2[nH]c(NCCCCCC)nc2n1,T/C,[12],107 % of control
same,T/C,[13],101 % of control
same,T/C,[14],96 % of control
same,T/C,[16],91 % of control
Cn1ccc(=Nc2ccc(NC(=O)c3ccc(N=c4ccn(C)c5ccc([N+](=O)[O-])cc45)cc3[N+](=O)[O-])cc2)cc1,T/C,[11],105 % of control
same,T/C,[12],93 % of control
same,T/C,[13],91 % of control
same,T/C,[14],94 % of control
same,T/C,[16],96 % of control
same,T/C,[15],96 % of control
O=C(O)CC(NC(=O)CP(=O)(O)O)C(=O)O.[NH-]C1CCCCC1[NH-].[Pt+2] (centres undefined),T/C,"dose: 0.78 mg/kg/injection, vehicle: dextrose",157 % of control
same,T/C,"dose: 3.12 mg/kg/injection, vehicle: dextrose",175 % of control
Nc1nc2ncc(CNc3ccc(C(=O)NC(CCC(=O)O)C(=O)O)cc3)nc2c(=O)[nH]1 (centres undefined),T/C,[17],96 % of control
same,T/C,[5],91 % of control
same,T/C,[6],108 % of control
same,T/C,[7],96 % of control
same,T/C,[8],101 % of control
CC(C)C1C(=O)N2CCCC2C2(O)OC(NC(=O)C3C=C4c5cccc6[nH]cc(c56)CC4N(C)C3)(C(C)C)C(=O)N12 (centres undefined),T/C,"dose: 8.0 mg/kg/injection, vehicle: Klucel (hydroxypropylcellulose) (HPC)",106 % of control
same,T/C,"dose: 16.0 mg/kg/injection, vehicle: Klucel (hydroxypropylcellulose) (HPC)",109 % of control
same,T/C,"dose: 32.0 mg/kg/injection, vehicle: Klucel (hydroxypropylcellulose) (HPC)",117 % of control
same,T/C,"dose: 64.0 mg/kg/injection, vehicle: Klucel (hydroxypropylcellulose) (HPC)",105 % of control
O=C(Nc1nncs1)c1ccncc1,T/C,[11],108 % of control
same,T/C,[12],102 % of control
same,T/C,[13],92 % of control
COC(=O)Nc1cn2ccc(Sc3ccccc3)cc2n1,T/C,"dose: 50.0 mg/kg/injection, vehicle: Klucel (hydroxypropylcellulose) (HPC)",122 % of control
same,T/C,"dose: 100.0 mg/kg/injection, vehicle: Klucel (hydroxypropylcellulose) (HPC)",101 % of control
CCC(=O)[O-].CCC(=O)[O-].CCC(=O)[O-].CCC(=O)[O-].O=S(=O)(O)O.[Re].[Re],T/C,"dose: 64.8 mg/kg/injection, vehicle: suspension in saline",93 % of control
same,T/C,"dose: 108.0 mg/kg/injection, vehicle: suspension in saline",86 % of control
same,T/C,"dose: 300.0 mg/kg/injection, vehicle: suspension in saline",86 % of control
CC(C)CC(NC(=O)C(F)(F)F)C(=O)O (centres undefined),T/C,[6],89 % of control
same,T/C,[7],91 % of control
[Cl][Pt][Cl].[NH-]C(CO)C(=O)O (centres undefined),T/C,"dose: 3.13 mg/kg/injection, vehicle: water",98 % of control
same,T/C,"dose: 6.25 mg/kg/injection, vehicle: water",106 % of control
same,T/C,"dose: 12.5 mg/kg/injection, vehicle: water",116 % of control and 107 % of control
same,T/C,"dose: 25.0 mg/kg/injection, vehicle: water",120 % of control
same,T/C,"dose: 50.0 mg/kg/injection, vehicle: water",114 % of control
CCOC(=O)Nc1cc2c(c(N)n1)N=C(CN(C)c1ccccc1)CN2,T/C,"dose: 0.78 mg/kg/injection, vehicle: Klucel (hydroxypropylcellulose) (HPC)",93 % of control
same,T/C,"dose: 1.56 mg/kg/injection, vehicle: Klucel (hydroxypropylcellulose) (HPC)",116 % of control
same,T/C,"dose: 3.12 mg/kg/injection, vehicle: Klucel (hydroxypropylcellulose) (HPC)",114 % of control
same,T/C,"dose: 6.25 mg/kg/injection, vehicle: Klucel (hydroxypropylcellulose) (HPC)",117 % of control
O=C(O)CCCCCCCC(=O)O,T/C,[1],91 % of control
same,T/C,[2],101 % of control
same,T/C,[3],101 % of control
same,T/C,[4],91 % of control
Nc1nc2nc[nH]c2c(=O)[nH]1,T/C,[10],116 % of control
same,T/C,[11],105 % of control
same,T/C,[12],104 % of control
same,T/C,[13],102 % of control
same,T/C,[14],90 % of control
CN(CCN(C)C(=O)CCOS(C)(=O)=O)C(=O)CCOS(C)(=O)=O,T/C,[5],113 % of control
same,T/C,[6],161 % of control
same,T/C,[7],203 % of control and 219 % of control
same,T/C,[8],213 % of control and 263 % of control
same,T/C,[9],102 % of control
C=C(C)C12OC3(CCCCCCCCC)OC1C1C4OC4(COC(=O)CCCCCCCCCCCCCCC)C(O)C4(O)C(=O)C(C)=CC4C1(O3)C(C)C2OC(=O)c1ccccc1 (centres undefined),T/C,"dose: 5.0 micrograms/kg/injection, vehicle: saline + alcohol",96 % of control
same,T/C,"dose: 10.0 micrograms/kg/injection, vehicle: saline + alcohol",99 % of control
same,T/C,"dose: 20.0 micrograms/kg/injection, vehicle: saline + alcohol",86 % of control
same,T/C,"dose: 40.0 micrograms/kg/injection, vehicle: saline + alcohol",88 % of control
NCCCNCCCCNC(=O)C(O)NC(=O)CCCCCCN=C(N)N (centres undefined),T/C,[17],108 % of control
same,T/C,[5],95 % of control
Nc1cc(=O)[nH][nH]1,T/C,[14],91 % of control
same,T/C,[16],96 % of control
same,T/C,[15],98 % of control
CN(N=O)C(=O)NCCCCCNC(=O)N(C)N=O,T/C,[11],98 % of control
same,T/C,[12],100 % of control
same,T/C,[13],109 % of control
same,T/C,[14],110 % of control
CC(C)(O)/C=C/C(=O)[C@](C)(O)[C@H]1[C@H](O)C[C@@]2(C)[C@@H]3CC=C4[C@@H](C=C(O)C(=O)C4(C)C)[C@]3(C)C(=O)C[C@]12C,T/C,"dose: 0.25 mg/kg/injection, vehicle: water",99 % of control
same,T/C,"dose: 0.5 mg/kg/injection, vehicle: water",89 % of control
same,T/C,"dose: 1.0 mg/kg/injection, vehicle: water",89 % of control
